Assay results as given in article PMC8070745, “FEN1 Blockade for Platinum Chemo-Sensitization and Synthetic Lethality in Epithelial Ovarian Cancers” (Cancers, 2021).

Legend:
A2780cis cells = assay: Clonogenic assay, A2780cis; type: cell-based, human
Method: (§1) Clonogenic assay: In the clonogenic assay (colony formation assays), 32 cells/cm2 were seeded in 6-well plates and left at 37°C in a 5% CO2 atmosphere. Cisplatin (5µM) and/or FEN1i (10µM) and/or Importazole (5 µM, Selleckem, S8446 ) were added at the indicated concentrations and the plates were left at 37 °C in a 5% CO 2 atmosphere for 14 days. Later, the plates were washed with PBS, fixed and stained with a crystal violet, acetic acid and methanol solution and colonies were counted. […]

PEO4 cells = assay: Clonogenic assay, PEO4; type: cell-based, human
Method: as §1

PEO1 cells = assay: Clonogenic assay, PEO1; type: cell-based, human
Method: as §1

PEO1R cells = assay: Clonogenic assay, PEO1R; type: cell-based, human; conditions: vs parental PEO1 cells
Method: as §1

[1] = test system: BRCA2_KD HeLa silenciX cells; assay: Clonogenic assay, BRCA2_KD HeLa; type: cell-based; conditions: vs control HeLa cells
Method: Clonogenic assay: In the clonogenic assay (colony formation assays), 32 cells/cm2 were seeded in 6-well plates and left at 37°C in a 5% CO2 atmosphere. Cisplatin (5µM) and/or FEN1i (10µM) and/or Importazole (5 µM, Selleckem, S8446 ) were added at the indicated concentrations and the plates were left at 37 °C in a 5% CO 2 atmosphere for 14 days. Later, the plates were washed with PBS, fixed and stained with a crystal violet, acetic acid and methanol solution and colonies were counted.
Nuclear and cytoplasmic extract: Cells were harvest by trypsinization, washed with PBS and centrifuged at 1000×g for 5min. […] Protein level were then quantified prior to use in western blots.
BCA protein quantification: Protein quantification was done using the Pierce BCA kit assay by Thermo Fisher Scientific. […] The plate was incubated at 37°C during 30 min in the dark and the absorbance was measured by FLUOstar OPTIMA, UK/ Infinite® F50 (UK) microplate reader at 590 nm. […]
Western Blot Analysis: Cells were harvested and lysed in RIPA buffer (R0278, Sigma) with the addition of protease cocktail inhibitor (P8348, Sigma), phosphatase inhibitor cocktail 2 (P5726, Sigma) and phosphatase inhibitor cocktail 3 (P0044, Sigma) and stored at - 20°C. Protein was quantified using BCA Protein Assay kit (23225, Thermo Fisher). […]

PEO1R spheroids = assay: 3D spheroid assay, PEO1R; type: cell-based, human; conditions: vs PEO1 spheroids
Method: with ice cold PBS and fixed in 70% ethanol for 1h at -20°C. After removal of the fixative solution by centrifugation, cells were stained with 2 µg/ml of phospho-Histone (γH2AX) Ser139 (16202A, Millipore, UK) to detect DSBs.
Cell cycle progression: Cells were treated with 20 µg/ml RNase A (12091021, Invitrogen) and then 10 µg/ml Propidium Iodide (P4170, Sigma Aldrich) was added to determine the cell cycle distribution. The samples were analysed on a Beckman-Coulter FC500 flow cytometer using a 488nm laser for excitation and emission data for PI collected using a 620nm bandpass filter (FL3) and a 525nm bandpass filter (FL1) for FITC-anti-phospho-Histone H2A.X.
Apoptosis detection: Annexin V detection kit (556547, BD Biosciences) was used to quantify apoptotic cells. Briefly, cells were trypsinized, washed with PBS and the cellular pellet was re-suspended in Anexin Binding Buffer (1×). […] All the samples were analysed on a Beckman-Coulter FC500 flow cytometer. The percentage of apoptotic cells was determined (late apoptotic = FITC-Annexin V positive, PI positive early apoptotic = FITC-Annexin V positive, PI negative; live cells = FITC-Annexin V negative, PI negative) and compared for untreated and treated samples. […]
To quantify cell viability, LIVE/DEAD Viability/Cytotoxicity Kit (L3224, Thermo Fisher Scientific) was used. […] At least 10 spheroids were measured. […]

SMILES	cytotoxicity of FEN1i monotherapy (A2780cis cells; 10 µM)	effect on cisplatin cytotoxicity (A2780cis cells; FEN1i 10 µM plus cisplatin)	effect on cisplatin cytotoxicity (PEO4 cells; FEN1i plus cisplatin)	sensitivity to FEN1 inhibitor (PEO1 cells; BRCA2 deficient PEO1 vs BRCA2 proficient PEO4)	sensitivity to FEN1 inhibitor (PEO1R cells)	sensitivity to FEN1 inhibitor [1]	spheroid sensitivity to FEN1 inhibitor (PEO1R spheroids)	cisplatin sensitivity (A2780cis cells)	cisplatin sensitivity (PEO4 cells)	cisplatin sensitivity (PEO1 cells)	sensitivity to cisplatin (PEO1R cells)	spheroid sensitivity to cisplatin (PEO1R spheroids)
Cc1csc2c1c(=O)n(O)c(=O)n2-c1ccccc1 [PTPD, 3-hydroxy-5-methyl-1-phenylthieno [2,3 d]pyrimidine-2,4(1H,3H)-dione]	non-toxic	significantly enhanced the cytotoxicity of cisplatin	potentiated cisplatin cytotoxicity	more sensitive to FEN1 inhibition in comparison to PEO4 cells	resistant	sensitive to FEN1i compared to control HeLa cells	resistant	–	–	–	–	–
N.N.[Cl][Pt][Cl] [cisplatin]	–	–	–	–	–	–	–	cisplatin-resistant	cisplatin resistant	cisplatin sensitive	resistant	resistant
